{"source": "ChEMBL document CHEMBL1148171", "about": "“Flavonoids from Koelreuteria henryi and other sources as protein-tyrosine kinase inhibitors” (J Nat Prod, 1993)", "data": [{"experiment": "Inhibition of bovine thymus p56-LCK protein tyrosine kinase activity", "set-up": "species or system Bos taurus", "units": {"IC50": "µg/mL"}, "values": [{"compound": "O=c1c(O[C@H]2OC[C@@H](O)[C@@H](O)[C@@H]2O)c(-c2ccc(O)cc2)oc2cc(O)cc(O)c12", "IC50": 200}, {"compound": "O=c1cc(-c2ccc(O)cc2)oc2cc(O)cc(O)c12", "note": "[APIGENIN]", "IC50": 4}, {"compound": "O=c1c(O)c(-c2ccccc2O)oc2cc(O)cc(O)c12", "note": "[DATISCETIN]", "IC50": 60}, {"compound": "Cc1cc(O)c2c(c1)C(=O)c1cc(O)cc(O)c1C2=O", "note": "[EMODIN]", "IC50": 10}, {"compound": "O=c1c(O)c(-c2ccccc2)oc2cc(O)cc(O)c12", "note": "[GALANGIN]", "IC50": 30}, {"compound": "COc1ccc(-c2oc3cc(O)cc(O)c3c(=O)c2O)cc1", "note": "[KAEMPFERIDE]", "IC50": 30}, {"compound": "C[C@H]1O[C@H](Oc2c(-c3ccc(O)cc3)oc3cc(O)cc(O)c3c2=O)[C@@H](O)[C@@H](O)[C@@H]1O", "note": "[KAEMPFEROL-3-O-RHAMNOSIDE]", "IC50": 400}, {"compound": "O=c1c(O)c(-c2ccc(O)cc2)oc2cc(O)cc(O)c12", "note": "[KAEMPFEROL]", "IC50": 8}, {"compound": "O=c1cc(-c2ccc(O)c(O)c2)oc2cc(O)cc(O)c12", "note": "[LUTEOLIN]", "IC50": 4}, {"compound": "O=c1c(O)c(-c2ccc(O)cc2O)oc2cc(O)cc(O)c12", "note": "[MORIN]", "IC50": 50}, {"compound": "O=c1c(O)c(-c2cc(O)c(O)c(O)c2)oc2cc(O)cc(O)c12", "note": "[MYRICETIN]", "IC50": 10}, {"compound": "O=c1c(O)c(-c2ccc(O)c(O)c2)oc2cc(O)cc(O)c12", "note": "[QUERCETIN]", "IC50": 8}, {"compound": "O=c1c(O)c(-c2ccc(O)cc2)oc2cc(O)ccc12", "note": "[RESOKAEMPFEROL]", "IC50": 5}]}]}
